In patent US11759461B2, “Small molecule inhibitors of cancer stem cells and mesenchymal cancer types” (The Scripps Research Institute, priority 2017, dated 2023) one finds IC50 data, which are given here for 70 molecules.

The subject of one test is FOXC2-expressing HMLER cells. The experiment in a line: Cell Titer Glo viability of FOXC2-HMLER cells (high throughput screen and 10-point response). Format: cell-based. The following applies: Homo sapiens; scored relative to parent compound 1; 72 hours; read-out: Activity Score, inhibition of FOXC2-expressing HMLER cells by Formula I compounds. How it is done: For high throughput screening, FOXC2-HMLER and HMLER cells were plated at 10^3 cells per well in white 384-well plates in 50 μL of MEGM medium (Lonza). Cells were allowed to attach for one hour before compound was transferred to each well as a DMSO solution using a 100 nL pintool head affixed to a PerkinElmer FX instrument. After 72-hour incubation, 30 μL of a Cell Titer Glo solution (diluted 1:6 in water, Promega) was dispensed into each well and luminance values were recorded using an Envision plate reader. […] All other miniaturized, selective viability experiments were performed as above using the indicated growth medium.
More specifically, in the high throughput screening assay above, each cell line was plated at 1,000 cells per well in 384-well plates, treated for 72 hours with 2 μM of test compound, and the viability of each line was determined in parallel by Cell Titer Glo (Promega) luminance measurements.
`CC1CC(C)CN(c2cnnc3c(Cl)cccc23)C1` (stereo not shown) [Compound 1A]: the IC50 fell in the range of 1 to 20 µM.

In the case of `Cc1ccc(-c2cc3c(N4CCN(c5ccccc5)CC4)nccn3n2)cc1C` [Compound 1B], the IC50 fell in the range of 1 to 20 µM.

For the molecule `Cc1ccc(N2CCN(c3nccn4nc(-c5ccccc5)cc34)CC2)cc1` [Compound 1C], the IC50 was 1 to 20 µM.

For the molecule `Clc1cccc(N2CCN(c3cnc4ccccc4n3)CC2)c1` [Compound 1D], the IC50 was in the range of 1 to 20 µM.

With `Clc1ccc(N2CCN(c3ccccc3Cl)CC2)nn1` [Compound 1E], the IC50 was over 20 µM.

In the case of `COc1ccc(N2CCN(c3nccn4nc(-c5ccc(Cl)cc5)cc34)CC2)cc1` [Compound 1F], the IC50 was over 20 µM.

Regarding `Clc1ccc2c(N3CCNCC3)ccnc2c1` [Compound 1G], the IC50 is over 20 µM.

For the molecule `Clc1ccc(N2CCN(c3cnnc4c(Cl)cccc34)CC2)cc1Cl` [Compound 1SRAA], the IC50 was 1 to 20 µM.

For `Clc1ccc(Cl)c(N2CCN(c3cnnc4c(Cl)cccc34)CC2)c1` [Compound 1SRAB], the IC50 is 1 to 20 µM.

Take `FC(F)(F)Oc1cccc(N2CCN(c3cnnc4c(Cl)cccc34)CC2)c1` [Compound 1SRAC]: the IC50 lay in the range of 1 to 20 µM.

Regarding `Clc1cccc(N2CCN(c3cnnc4c(Cl)cccc34)CC2)n1` [Compound 1SRAD], the IC50 is 1 to 20 µM.

For the molecule `Clc1nccc(N2CCN(c3cnnc4c(Cl)cccc34)CC2)n1` [Compound 1SRAE], the IC50 was over 20 µM.

`Clc1cncc(N2CCN(c3cnnc4c(Cl)cccc34)CC2)n1` [Compound 1SRAF]: the IC50 is over 20 µM.

For the molecule `Fc1cc(Cl)cc(N2CCN(c3cnnc4c(Cl)cccc34)CC2)c1` [Compound 1SRAG], the IC50 is under 1 µM.

In the case of `COc1cc(Cl)cc(N2CCN(c3cnnc4c(Cl)cccc34)CC2)c1` [Compound 1SRAH], the IC50 is under 0.234 µM.

Turning to `Cc1cc(Cl)cc(N2CCN(c3cnnc4c(Cl)cccc34)CC2)c1` [Compound 1SRAI], the IC50 was under 1 µM.

With `FC(F)(F)c1cc(Cl)cc(N2CCN(c3cnnc4c(Cl)cccc34)CC2)c1` [Compound 1SRAJ], the IC50 is 1 to 20 µM.

With `N#Cc1cc(Cl)cc(N2CCN(c3cnnc4c(Cl)cccc34)CC2)c1` [Compound 1SRAK], the IC50 is under 1 µM.

For the molecule `Cc1c(Cl)cc(N2CCN(c3cnnc4c(Cl)cccc34)CC2)cc1Cl` [Compound 1SRAL], the IC50 fell in the range of 1 to 20 µM.

For the molecule `Cc1c(S(=O)(=O)N2CCN(c3cnnc4c(Cl)cccc34)CC2)cnn1C(F)F` [Compound 1SRAM], the IC50 is over 20 µM.

Regarding `Clc1cc(Cl)cc(N2C[C@@H]3C[C@H]2CN3c2cnnc3c(Cl)cccc23)c1` [Compound 1SRAN], the IC50 is under 1 µM.

In the case of `Clc1cc(Cl)cc(N2CCN(c3cnnc4c(Cl)cccc34)CC2)c1` [Compound 1SRH], the IC50 is under 0.234 µM.

As for `Fc1c(Cl)cc(N2CCN(c3cnnc4c(Cl)cccc34)CC2)cc1Cl` [Compound 1SRI], the IC50 lay within 1 to 20 µM.

As to `Fc1ccc(N2CCN(c3cnnc4c(Cl)cccc34)CC2)cc1Cl` [Compound 1SRJ], the IC50 lay within 1 to 20 µM.

`Fc1c(Cl)cccc1N1CCN(c2cnnc3c(Cl)cccc23)CC1` [Compound 1SRK]: the IC50 is 1 to 20 µM.

Take `CC1CN(c2cc(Cl)cc(Cl)c2)CCN1c1cnnc2c(Cl)cccc12` (stereo not shown) [Compound 1SRL]: the IC50 is under 1 µM.

Take `CC1CN(c2cnnc3c(Cl)cccc23)CCN1c1cc(Cl)cc(Cl)c1` (stereo not shown) [Compound 1SRM]: the IC50 was under 1 µM.

Consider `Clc1cc(Cl)cc(N2CCN(c3cnnc4ccccc34)CC2)c1` [Compound 1SRN], for which the IC50 was under 1 µM.

Consider `Fc1cccc(N2CCN(c3cnnc4c(Cl)cccc34)CC2)c1` [Compound 1SRO], for which the IC50 is 1 to 20 µM.

With `FC(F)(F)c1cccc(N2CCN(c3cnnc4c(Cl)cccc34)CC2)c1` [Compound 1SRP], the IC50 was in the range of 1 to 20 µM.

Consider `FC(F)(F)Sc1cccc(N2CCN(c3cnnc4c(Cl)cccc34)CC2)c1` [Compound 1SRQ], for which the IC50 fell in the range of 1 to 20 µM.

In the case of `COc1cccc(N2CCN(c3cnnc4c(Cl)cccc34)CC2)c1` [Compound 1SRT], the IC50 is under 1 µM.

Consider `NC(=O)c1cccc(N2CCN(c3cnnc4c(Cl)cccc34)CC2)c1` [Compound 1SRV], for which the IC50 lay within 1 to 20 µM.

`Clc1ccccc1N1CCN(c2cnnc3c(Cl)cccc23)CC1` [Compound 1SRW]: the IC50 was in the range of 1 to 20 µM.

Consider `Clc1cccc2c(N3CCN(c4ccccc4)CC3)cnnc12` [Compound 1SRX], for which the IC50 was over 20 µM.

With `Clc1ccc(N2CCN(c3cnnc4c(Cl)cccc34)CC2)cc1` [Compound 1SRY], the IC50 was over 20 µM.

As for `Clc1cccc(N2CCN(c3cnnc4c(Cl)cccc34)CC2)c1Cl` [Compound 1SRZ], the IC50 was over 20 µM.

The same test, now with this note: Homo sapiens; scored relative to parent compound 2; 72 hours; read-out: Activity Score, inhibition of FOXC2-expressing HMLER cells by Formula II compounds.
Consider `COc1ccc(NCc2cc3cc4c(cc3n(CC(=O)Nc3ccccc3)c2=O)OCCO4)cc1` [Compound 2AA], for which the IC50 lay in the range of 1 to 20 µM.

As for `COc1cc2cc(CNc3ccc(C)cc3)c(=O)n(CC(=O)Nc3cc(C)ccc3C)c2cc1OC` [Compound 2AB], the IC50 was 1 to 20 µM.

In the case of `COc1ccc2cc(CNc3ccc(C)cc3)c(=O)n(CC(=O)Nc3ccc(C)cc3C)c2c1` [Compound 2AC], the IC50 lay in the range of 1 to 20 µM.

On to `CCc1ccccc1NC(=O)Cn1c(=O)c(CNc2ccccc2)cc2cc3c(cc21)OCCO3` [Compound 2AD], for which the IC50 was in the range of 1 to 20 µM.

For `CCc1ccc(NC(=O)Cn2c(=O)c(CNc3ccccc3)cc3cc4c(cc32)OCCO4)cc1` [Compound 2AE], the IC50 was 1 to 20 µM.

Turning to `CCc1ccccc1NC(=O)Cn1c(=O)c(CNc2ccc(C)cc2)cc2cc3c(cc21)OCCO3` [Compound 2AF], the IC50 lay within 1 to 20 µM.

For the molecule `CCOc1ccccc1NC(=O)Cn1c(=O)c(CNc2ccccc2)cc2ccc(OC)cc21` [Compound 2AG], the IC50 fell in the range of 1 to 20 µM.

On to `COc1ccc2cc(CNc3ccc(C)cc3)c(=O)n(CC(=O)Nc3ccc(F)cc3)c2c1` [Compound 2AH], for which the IC50 lay within 1 to 20 µM.

Consider `CCc1ccccc1NC(=O)Cn1c(=O)c(CNc2ccc(OC)cc2)cc2cc3c(cc21)OCCO3` [Compound 2AI], for which the IC50 lay within 1 to 20 µM.

Turning to `COc1ccc(NCc2cc3ccc(C)cc3n(CC(=O)Nc3ccccc3C)c2=O)cc1OC` [Compound 2AJ], the IC50 was 1 to 20 µM.

Regarding `Cc1ccc(NCc2cc3cc4c(cc3n(CC(=O)Nc3ccccc3C)c2=O)OCCO4)cc1` [Compound 2AK], the IC50 lay within 1 to 20 µM.

For `CCc1ccc(NCc2cc3cc4c(cc3n(CC(=O)Nc3ccc(OC)cc3)c2=O)OCCO4)cc1` [Compound 2AL], the IC50 was 1 to 20 µM.

As to `Cc1ccc(NCc2cc3cc4c(cc3n(CC(=O)Nc3c(C)cccc3C)c2=O)OCCO4)cc1` [Compound 2AM], the IC50 lay within 1 to 20 µM.

With `CCc1ccc(NCc2cc3ccc(OC)cc3n(CC(=O)Nc3cc(C)ccc3C)c2=O)cc1` [Compound 2AN], the IC50 was 1 to 20 µM.

In the case of `CCc1ccc(NCc2cc3ccc(OC)cc3n(CC(=O)Nc3c(C)cc(C)cc3C)c2=O)cc1` [Compound 2AO], the IC50 is 1 to 20 µM.

For `CCc1ccc(NCc2cc3ccc(OC)cc3n(CC(=O)Nc3ccccc3CC)c2=O)cc1` [Compound 2AP], the IC50 lay within 1 to 20 µM.

As for `CCOC(=O)c1ccc(NC(=O)Cn2c(=O)c(CNc3ccccc3)cc3ccc(OC)cc32)cc1` [Compound 2AQ], the IC50 was over 20 µM.

Take `COc1ccc2cc(CNc3ccccc3)c(=O)n(CC(=O)NCc3ccc(Cl)cc3)c2c1` [Compound 2AR]: the IC50 is over 20 µM.

In the case of `CCc1ccc(NCc2cc3cc(OC)c(OC)cc3n(CC(=O)Nc3ccc(CC)cc3)c2=O)cc1` [Compound 2AS], the IC50 is over 20 µM.

As for `COc1ccc(NCc2cc3ccc(OC)cc3n(CC(=O)Nc3ccccc3F)c2=O)cc1` [Compound 2AT], the IC50 was over 20 µM.

As to `COc1ccc2cc(CNc3ccccc3)c(=O)n(CC(=O)NCc3ccccc3)c2c1` [Compound 2AU], the IC50 is over 20 µM.

Take `COc1ccc(NCc2cc3ccc(OC)cc3n(CC(=O)Nc3ccc(C(C)C)cc3)c2=O)cc1` [Compound 2AV]: the IC50 is over 20 µM.

With `COc1ccc2cc(CNc3ccc(OC)c(OC)c3)c(=O)n(CC(=O)Nc3ccccc3C)c2c1` [Compound 2AW], the IC50 was over 20 µM.

Take `COc1ccc2cc(CNc3ccccc3)c(=O)n(CC(=O)NCCc3ccccc3)c2c1` [Compound 2AX]: the IC50 was over 20 µM.

Turning to `COc1ccc2cc(CNc3ccc(C)cc3)c(=O)n(CC(=O)Nc3ccc(C)cc3)c2c1` [Compound 2AY], the IC50 is over 20 µM.

On to `COc1ccc(NCc2cc3ccc(OC)cc3n(CC(=O)Nc3ccccc3)c2=O)cc1` [Compound 2AZ], for which the IC50 was over 20 µM.

Regarding `CCc1ccc(NCc2cc3cc4c(cc3n(CC(=O)Nc3c(C)cccc3C)c2=O)OCCO4)cc1` [Compound 2A], the IC50 is under 1 µM.

With `COc1ccc2cc(CNc3ccccc3)c(=O)n(CC(=O)Nc3ccc(C)cc3Cl)c2c1` [Compound 2BA], the IC50 was over 20 µM.

In the case of `COc1cccc(CNC(=O)Cn2c(=O)c(CNc3ccccc3)cc3ccc(OC)cc32)c1` [Compound 2BB], the IC50 was over 20 µM.

Consider `COc1ccc2cc(CNc3ccccc3)c(=O)n(CC(=O)Nc3c(C)cc(C)cc3C)c2c1` [Compound 2BC], for which the IC50 was over 20 µM.

With `COc1ccc(NCc2cc3cc(OC)c(OC)cc3n(CC(=O)Nc3ccc(C)cc3)c2=O)cc1` [Compound 2BD], the IC50 is over 20 µM.

In the case of `COc1ccc2c(c1)cc(CNc1ccc(OC)c(OC)c1)c(=O)n2CC(=O)Nc1ccccc1C` [Compound 2BE], the IC50 is over 20 µM.

With `CC(=O)c1cccc(NC(=O)Cn2c(=O)c(CNc3ccc(C)cc3)cc3cc4c(cc32)OCCO4)c1` [Compound 2BF], the IC50 was over 20 µM.
